# Columns and labels:
# barnyardgrass = assay: Test A pre-/postemergence herbicide test; format: in vivo, Echinochloa crus-galli; conditions: for Plant response rating, Barnyardgrass: Postemergence; for Barnyardgrass plant response rating: Preemergence
# How it was run: (§1)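 Visual injury scores on a 0–100 scale (100 = complete control) taken about ten days post-treatment in greenhouse against untreated controls; dash means no result. Treatments: preemergence soil spray and postemergence spray to runoff on one- to two-leaf plants 2 to 10 cm tall, surfactant-containing formulation.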
# morningglory = assay: Test A pre-/postemergence herbicide test; format: in vivo, Ipomoea spp.; conditions: for Plant response rating, Morningglory: Postemergence; for Morningglory plant response rating: Preemergence
# How it was run: as §1
# redroot pigweed = assay: Test A pre-/postemergence herbicide test; format: in vivo, Amaranthus retroflexus; conditions: for Plant response rating, Pigweed: Postemergence; for Pigweed plant response rating: Preemergence
# How it was run: as §1
# bermudagrass = assay: Test C pre-/postemergence herbicide test; format: in vivo, Cynodon dactylon
# How it was run: (§2)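 Visual ratings on a 0–100 scale (100 = complete control) made versus untreated controls after 12 to 14 greenhouse days. Test chemicals, formulated in surfactant-containing non-phytotoxic solvent, applied preemergence to planted seeds or postemergence to 1- to 4-leaf plants (2 to 18 cm).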
# large crabgrass = assay: Test C pre-/postemergence herbicide test; format: in vivo, Digitaria sanguinalis; conditions: for Crabgrass, Large plant response rating: 500 g ai/ha
# How it was run: as §2
# eastern black nightshade = assay: Test C pre-/postemergence herbicide test; format: in vivo, Solanum ptycanthum; conditions: for Plant response rating, Nightshade / Plant response rating (0 = no effect, 100 = complete control), Nightshade: preemergence; for Plant response rating (0 = no effect, 100 = complete control), Nightshade: 62 g ai/ha
# How it was run: as §2
# velvetleaf = assay: Test C pre-/postemergence herbicide test; format: in vivo, Abutilon theophrasti; conditions: for Velvetleaf plant response rating: 500 g ai/ha
# How it was run: as §2
# chickweed = assay: Test C postemergence herbicide test; format: in vivo, Stellaria media
# Procedure: At the same time, plants selected from these crop and weed species and also winter barley (Hordeum vulgare L.), blackgrass (Alopecurus myosuroides Huds.), canarygrass (Phalaris minor Retz.), chickweed (Stellaria media (L.) Vill.), downy bromegrass (Bromus tectorum L.), green foxtail (Setaria viridis (L.) Beauv.), Italian ryegrass (Lolium multiflorum Lam.), wheat (Triticum aestivum L.), wild oat (Avenafatua L.) and windgrass (Apera spica-venti (L.) Beauv.) were treated with postemergence applications of some of the test chemicals formulated in the same manner. Plants ranged in height from 2 to 18 cm (1- to 4-leaf stage) for postemergence treatments. Plant species in the flooded paddy test consisted of rice (Oryza sativa), smallflower umbrella sedge (Cyperus difformis L.), ducksalad (Heteranthera limosa (Sw.) Willd.) and barnyardgrass (Echinochloa crus-galli (L.) Beauv.) grown to the 2-leaf stage for testing. Treated plants and controls were maintained in a greenhouse for 12 to 14 days, after which time all species were compared to controls and visually evaluated. Plant response ratings, summarized in Table C, are based on a scale of 0 to 100 where 0 is no effect and 100 is complete control. A dash (-) response means no test result.
# [1] = 500 g ai/ha, 0 to 100 scale, 0 no effect, 100 complete control
# [2] = 2000 g ai/ha, 0 to 100 scale, 0 no effect, 100 complete control
# [3] = 500 g ai/ha, visual rating, 0 to 100 scale (0 no effect, 100 complete control)
# [4] = 31 g ai/ha, preemergence, scale 0 to 100
# [5] = 125 g ai/ha, scale 0-100, preemergence
# [6] = Postemergence, 125 g ai/ha, scale 0 to 100, 0 no effect, 100 complete control
# [7] = postemergence, 16 g ai/ha, scale 0 to 100
# [8] = postemergence, 31 g ai/ha, scale 0 to 100
# [9] = postemergence, 62 g ai/ha, scale 0 to 100
# [10] = 125 g ai/ha, scale 0 (no effect) to 100 (complete control), visual, 12 to 14 days, preemergence
# [11] = 250 g ai/ha, scale 0 to 100 (0 no effect, 100 complete control), visual, 12 to 14 days, preemergence
# [12] = Postemergence, 500 g ai/ha, scale 0 to 100
# [13] = Preemergence, 500 g ai/ha, scale 0 to 100, 0 no effect, 100 complete control
# [14] = Postemergence, 250 g ai/ha, scale 0 to 100, 0 no effect, 100 complete control
# [15] = Preemergence, scale 0 to 100, 0 no effect, 100 complete control
compound,measurement,setting,value
C=Cn1nc(C(C)(C)C)cc1C(=O)Nc1cccc(C(=O)NCC)c1 [Compound 33],"Plant response rating, Barnyardgrass",barnyardgrass; [1],75
same,"Plant response rating, Barnyardgrass",barnyardgrass; [2],90
same,Barnyardgrass plant response rating,barnyardgrass; [3],55
same,Barnyardgrass plant response rating,barnyardgrass; [2],80
same,"Plant response rating, Morningglory",morningglory; [1],10
same,"Plant response rating, Morningglory",morningglory; [2],25
same,Morningglory plant response rating,morningglory; [3],35
same,Morningglory plant response rating,morningglory; [2],70
same,"Plant response rating, Pigweed",redroot pigweed; [1],85
same,"Plant response rating, Pigweed",redroot pigweed; [2],85
same,Pigweed plant response rating,redroot pigweed; [3],100
same,Pigweed plant response rating,redroot pigweed; [2],100
same,"Plant response rating, Bermudagrass","bermudagrass; 16 g ai/ha, scale 0 to 100, 0 no effect, 100 complete control, last section of Table C (species set of preemergence test)",30
same,"Plant response rating, Bermudagrass",bermudagrass; [4],50
same,"Plant response rating (0 = no effect, 100 = complete control), Bermudagrass","bermudagrass; 62 g ai/ha, preemergence",80
same,"Plant response rating, Bermudagrass",bermudagrass; [5],90
same,"Plant response rating, Bermudagrass",bermudagrass; [6],30
same,"Plant response rating, Bermudagrass",bermudagrass; [7],0
same,"Plant response rating, Bermudagrass",bermudagrass; [8],20
same,"Plant response rating, Bermudagrass",bermudagrass; [9],20
same,"Plant response rating, Crabgrass, Large",large crabgrass; [4],90
same,"Plant response rating (0 = no effect, 100 = complete control), Crabgrass, Large","large crabgrass; 62 g ai/ha, preemergence",100
same,"Plant response rating, Crabgrass, Large",large crabgrass; [5],100
same,"Plant response rating, Crabgrass, Large",large crabgrass; [6],50
same,"Plant response rating, Crabgrass, Large",large crabgrass; [8],40
same,"Plant response rating, Nightshade","eastern black nightshade; 31 g ai/ha, scale 0 to 100",10
same,"Plant response rating (0 = no effect, 100 = complete control), Nightshade",eastern black nightshade,60
same,"Plant response rating, Velvetleaf",velvetleaf; [4],0
same,"Plant response rating, Velvetleaf",velvetleaf; [8],60
same,"Plant response rating, Velvetleaf",velvetleaf; [9],90
same,"Plant response rating, Chickweed",chickweed; [6],100
same,"Plant response rating, Chickweed",chickweed; [7],30
same,"Plant response rating, Chickweed",chickweed; [8],40
same,"Plant response rating, Chickweed",chickweed; [9],90
C#CCn1nc(C(C)(C)C)cc1C(=O)Nc1cccc(C(=O)NCC)c1 [Compound 50],"Plant response rating (0 = no effect, 100 = complete control), Bermudagrass","bermudagrass; 62 g ai/ha, preemergence",0
same,"Plant response rating, Bermudagrass",bermudagrass; [10],0
same,"Plant response rating, Bermudagrass",bermudagrass; [11],0
same,Bermudagrass plant response rating,bermudagrass; [12],40
same,"Plant response rating, Bermudagrass",bermudagrass; [6],30
same,Bermudagrass plant response rating,"bermudagrass; Postemergence, 250 g ai/ha, scale 0 to 100",30
same,Bermudagrass plant response rating,bermudagrass; [13],10
same,"Plant response rating, Bermudagrass",bermudagrass; [9],0
same,"Plant response rating (0 = no effect, 100 = complete control), Crabgrass, Large","large crabgrass; 62 g ai/ha, preemergence",0
same,"Plant response rating, Crabgrass, Large",large crabgrass; [10],0
same,"Plant response rating, Crabgrass, Large",large crabgrass; [11],20
same,"Crabgrass, Large plant response rating","large crabgrass; Postemergence, scale 0 to 100",0
same,"Plant response rating, Crabgrass, Large",large crabgrass; [6],0
same,"Plant response rating, Crabgrass, Large",large crabgrass; [14],0
same,"Crabgrass, Large plant response rating",large crabgrass; [15],80
same,"Plant response rating, Crabgrass, Large",large crabgrass; [9],0
same,"Plant response rating (0 = no effect, 100 = complete control), Nightshade",eastern black nightshade,0
same,"Plant response rating, Nightshade","eastern black nightshade; 125 g ai/ha, scale 0 (no effect) to 100 (complete control), visual, 12 to 14 days",5
same,"Plant response rating, Nightshade","eastern black nightshade; 250 g ai/ha, scale 0 to 100 (0 no effect, 100 complete control), visual, 12 to 14 days",80
same,Nightshade plant response rating,eastern black nightshade; [13],95
same,"Plant response rating (0 = no effect, 100 = complete control), Velvetleaf","velvetleaf; 62 g ai/ha, preemergence",0
same,"Plant response rating, Velvetleaf",velvetleaf; [10],5
same,"Plant response rating, Velvetleaf",velvetleaf; [11],5
same,Velvetleaf plant response rating,"velvetleaf; Postemergence, scale 0 to 100",100
same,"Plant response rating, Velvetleaf",velvetleaf; [14],100
same,Velvetleaf plant response rating,velvetleaf; [15],5
same,"Plant response rating, Velvetleaf",velvetleaf; [9],100
same,Chickweed plant response rating,chickweed; [12],0
same,"Plant response rating, Chickweed",chickweed; [6],0
same,"Plant response rating, Chickweed",chickweed; [14],0
same,"Plant response rating, Chickweed",chickweed; [9],0

# Reference: patent publication US20060069132A1, “Azolecarboxamide herbicides” (priority 2004, published 2006)
